According to PubChem BioAssay AID256 (DTP/NCI, 2004):
Several values for one entry are separate records, joined by “and”; a condition that tells them apart may be missing. Identical values can stand only once. Inconclusive results and toxic doses are left out. How the source made its calls: active means survival T/C of 150% or more; inactive means T/C below 125% in these data. Non-standard residues stand in square brackets, D forms with d. Residues, ends and D or L forms follow the SMILES beside them. ξ: configuration not given here. *: point of attachment. Cbz = O=C(OCc1ccccc1)*; ξIva = CCC(C)(N)C(=O)O; Bn = c1ccc(C*)cc1; βAla = NCCC(=O)O

Tested on: CD2F1 mice, L1210 leukemia ip, survival T/C
Assay: NCI In Vivo Anticancer Drug Screen. Data for tumor model L1210 Leukemia (intraperitoneal) in CD2F1 (CDF1) mice
Settings: higher = longer survival
Outline: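 Read-out first: treated-group measurement over vehicle-control measurement, expressed as a ratio. Animals bore a transplanted tumor line and were dosed with compound or vehicle.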

[1] = endpoint: mean survival time, dose: 12.5 mg/kg/injection, schedule: Q01DX009 (ip), vehicle: saline with Tween-80
[2] = endpoint: mean survival time, dose: 100.0 mg/kg/injection, schedule: Q01DX009 (ip), vehicle: saline with Tween-80
[3] = endpoint: mean survival time, dose: 200.0 mg/kg/injection, schedule: Q01DX009 (ip), vehicle: saline with Tween-80
[4] = endpoint: mean survival time, dose: 100.0 mg/kg/injection, schedule: Q04DX003 (ip), vehicle: saline with Tween-80
[5] = endpoint: mean survival time, dose: 400.0 mg/kg/injection, schedule: Q04DX003 (ip), vehicle: saline with Tween-80
[6] = endpoint: mean survival time, dose: 200.0 mg/kg/injection, schedule: Q04DX003 (ip), vehicle: saline with Tween-80
[7] = endpoint: mean survival time, dose: 400.0 mg/kg/injection, schedule: Q01DX009 (ip), vehicle: saline with Tween-80

Measured: T/C

CC1=NNC(=O)C1CCO (stereo not given)
inactive: endpoint: median survival time, dose: 25.0 mg/kg/injection, schedule: Q01DX009 (ip), vehicle: Klucel (hydroxypropylcellulose) (HPC) 103 % of control | endpoint: median survival time, dose: 50.0 mg/kg/injection, schedule: Q01DX009 (ip), vehicle: Klucel (hydroxypropylcellulose) (HPC) 100 % of control | endpoint: median survival time, dose: 100.0 mg/kg/injection, schedule: Q01DX009 (ip), vehicle: Klucel (hydroxypropylcellulose) (HPC) 98 % of control | endpoint: median survival time, dose: 200.0 mg/kg/injection, schedule: Q01DX009 (ip), vehicle: Klucel (hydroxypropylcellulose) (HPC) 102 % of control | endpoint: median survival time, dose: 400.0 mg/kg/injection, schedule: Q01DX009 (ip), vehicle: Klucel (hydroxypropylcellulose) (HPC) 103 % of control | endpoint: median survival time, dose: 800.0 mg/kg/injection, schedule: Q01DX009 (ip), vehicle: Klucel (hydroxypropylcellulose) (HPC) 104 % of control

COC(=O)C(CSCc1ccccc1)NC(=O)C(CSCc1ccccc1)NC(=O)CCNC(=O)OCc1ccccc1 (stereo not given) ({Cbz-βAla}-Cys(Bn)-Cys(Bn)-OMe; configuration not given here)
inactive: endpoint: mean survival time, dose: 25.0 mg/kg/injection, schedule: Q01DX005 (ip), vehicle: water 103 % of control | endpoint: mean survival time, dose: 50.0 mg/kg/injection, schedule: Q01DX005 (ip), vehicle: water 98 % of control | endpoint: mean survival time, dose: 100.0 mg/kg/injection, schedule: Q01DX005 (ip), vehicle: water 106 % of control | endpoint: mean survival time, dose: 200.0 mg/kg/injection, schedule: Q01DX005 (ip), vehicle: water 103 % of control | endpoint: mean survival time, dose: 400.0 mg/kg/injection, schedule: Q01DX005 (ip), vehicle: water 105 % of control

CCCCC/C=C/C/C=C\CCCCCCCC1=C(O)C(=O)C(OC)=C(OC)C1=O
inactive: endpoint: mean survival time, dose: 6.25 mg/kg/injection, schedule: Q01DX009 (ip), vehicle: saline with Tween-80 120 % of control | [1] 106 % of control | endpoint: mean survival time, dose: 25.0 mg/kg/injection, schedule: Q01DX009 (ip), vehicle: saline with Tween-80 98 % of control | endpoint: mean survival time, dose: 50.0 mg/kg/injection, schedule: Q01DX009 (ip), vehicle: saline with Tween-80 102 % of control | [2] 102 % of control | [3] 106 % of control

Cc1csc2nc(-c3ccccc3)[nH]c(=S)c12
inactive: [4] 90 % of control | [5] 87 % of control

OC1C2CCC(C2)C1C(O)(C(F)(F)F)C(F)(F)F (stereo not given)
inactive: endpoint: mean survival time, dose: 3.13 mg/kg/injection, schedule: Q01DX009 (ip), vehicle: saline 104 % of control | endpoint: mean survival time, dose: 6.25 mg/kg/injection, schedule: Q01DX009 (ip), vehicle: saline 98 % of control | endpoint: mean survival time, dose: 6.25 mg/kg/injection, schedule: Q04DX003 (ip), vehicle: saline with Tween-80 98 % of control | endpoint: mean survival time, dose: 12.5 mg/kg/injection, schedule: Q01DX009 (ip), vehicle: saline 103 % of control | endpoint: mean survival time, dose: 12.5 mg/kg/injection, schedule: Q04DX003 (ip), vehicle: saline with Tween-80 98 % of control

O=C(CCCCCCCCC(=O)N/N=C\c1ccccc1O)N/N=C\c1ccccc1O
inactive: [1] 97 % of control | [4] 98 % of control | [6] 93 % of control | [5] 93 % of control

O=C(Nc1ccccc1)c1ccccc1C(O)(c1ccccc1)c1ccccn1 (stereo not given)
inactive: [4] 97 % of control | [6] 101 % of control | [5] 86 % of control

CCCCCCCCCCCC[N+]1(C)CCOCC1
inactive: endpoint: mean survival time, dose: 12.5 mg/kg/injection, schedule: Q01DX009 (ip), vehicle: Klucel (hydroxypropylcellulose) (HPC) 102 % of control | endpoint: mean survival time, dose: 25.0 mg/kg/injection, schedule: Q01DX009 (ip), vehicle: Klucel (hydroxypropylcellulose) (HPC) 98 % of control | endpoint: mean survival time, dose: 50.0 mg/kg/injection, schedule: Q01DX009 (ip), vehicle: Klucel (hydroxypropylcellulose) (HPC) 98 % of control

CCOC(=O)c1cnc(SCc2ccccc2)[nH]c1=O
inactive: [4] 107 % of control | [6] 110 % of control | [5] 102 % of control

C=C(C)C(=O)OC1C/C(CO)=C\C(O)C/C(C)=C/C2OC(=O)C(=C)C21 (stereo not given)
inactive: endpoint: mean survival time, dose: 1.25 mg/kg/injection, schedule: Q01DX009 (ip), vehicle: saline + alcohol 103 % of control and 104 % of control | endpoint: mean survival time, dose: 2.5 mg/kg/injection, schedule: Q01DX009 (ip), vehicle: saline + alcohol 116 % of control and 101 % of control | endpoint: mean survival time, dose: 3.75 mg/kg/injection, schedule: Q01DX009 (ip), vehicle: saline + alcohol 114 % of control | endpoint: mean survival time, dose: 5.0 mg/kg/injection, schedule: Q01DX009 (ip), vehicle: saline + alcohol 113 % of control and 123 % of control | endpoint: mean survival time, dose: 7.5 mg/kg/injection, schedule: Q01DX009 (ip), vehicle: saline + alcohol 114 % of control | endpoint: mean survival time, dose: 10.0 mg/kg/injection, schedule: Q01DX009 (ip), vehicle: saline + alcohol 110 % of control | endpoint: mean survival time, dose: 15.0 mg/kg/injection, schedule: Q01DX009 (ip), vehicle: saline + alcohol 106 % of control | endpoint: mean survival time, dose: 20.0 mg/kg/injection, schedule: Q01DX009 (ip), vehicle: saline + alcohol 122 % of control | endpoint: mean survival time, dose: 30.0 mg/kg/injection, schedule: Q01DX009 (ip), vehicle: saline + alcohol 120 % of control | endpoint: mean survival time, dose: 40.0 mg/kg/injection, schedule: Q01DX009 (ip), vehicle: saline + alcohol 97 % of control

CCOC(=O)C(Cc1c[nH]c2ccccc12)(NC(C)=O)C(=O)OCC
inactive: [4] 98 % of control | [6] 96 % of control | [5] 104 % of control

CC1(CCOC2CCCCO2)NC(=O)NC1=O (stereo not given)
inactive: endpoint: mean survival time, dose: 100.0 mg/kg/injection, schedule: Q01DX001 (ip), vehicle: saline sonified 102 % of control | [2] 112 % of control | endpoint: mean survival time, dose: 200.0 mg/kg/injection, schedule: Q01DX001 (ip), vehicle: saline sonified 100 % of control | [3] 103 % of control | endpoint: mean survival time, dose: 400.0 mg/kg/injection, schedule: Q01DX001 (ip), vehicle: saline sonified 100 % of control | [7] 103 % of control

COc1ccc(-n2c(=O)[nH]c3c(c2=O)C(c2ccc(Cl)cc2)C(C)(C)O3)cc1 (stereo not given)
inactive: endpoint: mean survival time, dose: 100.0 mg/kg/injection, schedule: Q04DX002 (ip), vehicle: saline with Tween-80 100 % of control | endpoint: mean survival time, dose: 200.0 mg/kg/injection, schedule: Q04DX002 (ip), vehicle: saline with Tween-80 95 % of control | endpoint: mean survival time, dose: 400.0 mg/kg/injection, schedule: Q04DX002 (ip), vehicle: saline with Tween-80 103 % of control

CCC(C)(NC(=O)CN)C(=O)O (stereo not given) (H-Gly-[ξIva]-OH)
inactive: endpoint: mean survival time, dose: 100.0 mg/kg/injection, schedule: Q04DX002 (ip), vehicle: saline 90 % of control | endpoint: mean survival time, dose: 200.0 mg/kg/injection, schedule: Q04DX002 (ip), vehicle: saline 93 % of control | endpoint: mean survival time, dose: 400.0 mg/kg/injection, schedule: Q04DX002 (ip), vehicle: saline 90 % of control

CCOC(=O)C1=C(N)SC(=O)C1
inactive: [4] 100 % of control | [6] 104 % of control | [5] 95 % of control

Clc1ccc(-c2cc(-c3ccc(Cl)cc3)cc(-c3ccc(Cl)cc3)c2)cc1
inactive: [2] 101 % of control | [3] 106 % of control | [7] 105 % of control

CC(=O)N(c1c(-c2ccccc2)nc2ccccc2c1C(=O)O)C1CCCCC1
inactive: [2] 100 % of control | [4] 102 % of control | [3] 96 % of control | [6] 98 % of control | [7] 90 % of control | [5] 90 % of control

Cc1ccc(-c2nc3ncnc(N)c3[nH]2)cc1[N+](=O)[O-]
inactive: endpoint: mean survival time, dose: 37.5 mg/kg/injection, schedule: Q01DX001 (ip), vehicle: saline with Tween-80 101 % of control | endpoint: mean survival time, dose: 75.0 mg/kg/injection, schedule: Q01DX001 (ip), vehicle: saline with Tween-80 90 % of control | endpoint: mean survival time, dose: 150.0 mg/kg/injection, schedule: Q01DX001 (ip), vehicle: saline with Tween-80 88 % of control

CCOC(=O)C1(C(=O)OCC)C(C)CC2Nc3ccccc3C(=O)N21 (stereo not given)
inactive: endpoint: mean survival time, dose: 100.0 mg/kg/injection, schedule: Q01DX001 (ip), vehicle: Klucel (hydroxypropylcellulose) (HPC) 100 % of control | endpoint: mean survival time, dose: 200.0 mg/kg/injection, schedule: Q01DX001 (ip), vehicle: Klucel (hydroxypropylcellulose) (HPC) 96 % of control | endpoint: mean survival time, dose: 400.0 mg/kg/injection, schedule: Q01DX001 (ip), vehicle: Klucel (hydroxypropylcellulose) (HPC) 92 % of control

Cc1ccc(S(=O)(=O)Oc2cc([N+](=O)[O-])ccc2N)cc1
inactive: endpoint: mean survival time, dose: 100.0 mg/kg/injection, schedule: Q04DX003 (ip), vehicle: saline 95 % of control | endpoint: mean survival time, dose: 200.0 mg/kg/injection, schedule: Q04DX003 (ip), vehicle: saline 100 % of control | endpoint: mean survival time, dose: 400.0 mg/kg/injection, schedule: Q04DX003 (ip), vehicle: saline 103 % of control

Cn1c(Cl)nc2c(Cl)nc(Cl)nc21
inactive: endpoint: mean survival time, dose: 50.0 mg/kg/injection, schedule: Q04DX003 (ip), vehicle: Klucel (hydroxypropylcellulose) (HPC) 100 % of control | endpoint: mean survival time, dose: 100.0 mg/kg/injection, schedule: Q04DX003 (ip), vehicle: Klucel (hydroxypropylcellulose) (HPC) 104 % of control
